Test results: ChEMBL document CHEMBL1139605, “Novel ketal ligands for the glucocorticoid receptor: in vitro and in vivo activity” (Bioorg Med Chem Lett, 2005)

How the values were obtained:
Mus musculus [1] = species: Mus musculus; test: Effective concentration required for inhibition of interleukin-6 in mouse thioglycolate-elicited peritoneal exudate cell line using 79% radiolabeled Dexamethasone; format: functional
Glucocorticoid receptor [2] = biological target: T1, Glucocorticoid receptor (Homo sapiens, UniProt P04150); test: Inhibition of human glucocorticoid receptor alpha isoform
T1 sequence (P04150 whole entry): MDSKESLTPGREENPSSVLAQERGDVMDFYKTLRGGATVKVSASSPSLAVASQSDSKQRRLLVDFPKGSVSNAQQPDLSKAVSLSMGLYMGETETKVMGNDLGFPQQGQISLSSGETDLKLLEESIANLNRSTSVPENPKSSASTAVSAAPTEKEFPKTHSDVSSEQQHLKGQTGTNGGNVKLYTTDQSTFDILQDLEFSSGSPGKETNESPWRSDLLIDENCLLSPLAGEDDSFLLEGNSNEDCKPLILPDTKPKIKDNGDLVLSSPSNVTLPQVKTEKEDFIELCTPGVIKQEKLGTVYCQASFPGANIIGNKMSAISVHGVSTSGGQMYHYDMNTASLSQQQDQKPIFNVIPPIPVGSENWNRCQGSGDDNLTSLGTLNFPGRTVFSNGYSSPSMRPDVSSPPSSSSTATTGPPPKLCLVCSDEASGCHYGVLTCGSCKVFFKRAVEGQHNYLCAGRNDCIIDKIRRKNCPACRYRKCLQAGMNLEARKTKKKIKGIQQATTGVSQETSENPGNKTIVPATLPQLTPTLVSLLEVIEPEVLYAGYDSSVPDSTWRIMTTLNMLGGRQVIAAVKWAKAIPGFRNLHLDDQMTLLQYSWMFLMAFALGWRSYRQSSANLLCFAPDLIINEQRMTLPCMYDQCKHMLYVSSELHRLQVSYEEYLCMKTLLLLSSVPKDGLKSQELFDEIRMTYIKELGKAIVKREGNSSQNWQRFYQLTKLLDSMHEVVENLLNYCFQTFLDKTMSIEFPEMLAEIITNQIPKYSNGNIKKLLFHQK

A549 [3] = test: Effective concentration for inhibition of interleukin-6 in human A549 lung carcinoma cell line using 32% radiolabeled Dexamethasone; format: functional, cell-based
A549 [4] = test: Effective concentration for inhibition of interleukin-6 in human A549 lung carcinoma cell line using […]% radiolabeled Dexamethasone; format: functional, cell-based
Mus musculus [5] = species: Mus musculus; test: Effective concentration required for inhibition of interleukin-6 in mouse thioglycolate-elicited peritoneal exudate cell line using 62% radiolabeled Dexamethasone; format: functional
A549 [6] = test: Effective concentration for inhibition of interleukin-6 in human A549 lung carcinoma cell line using 75% radiolabeled Dexamethasone; format: functional, cell-based
Mus musculus [7] = species: Mus musculus; test: Effective concentration required for interleukin-6 transrepression in peritoneal exudate cells of C57B1/6 mouse using 62% Dexamethasone; format: functional, cell-based
Mus musculus [8] = test: Inhibition of LPS induced TNF-alpha secretion in mouse at an oral dose of 30 mg/kg relative to that produced by Dexamethasone at a dose of 0.3 mg/kg; format: functional
Mus musculus [9] = species: Mus musculus; test: Effective concentration required for inhibition of interleukin-6 in mouse thioglycolate-elicited peritoneal exudate cell line using 81% radiolabeled Dexamethasone; format: functional
A549 [10] = test: Effective concentration for inhibition of interleukin-6 in human A549 lung carcinoma cell line using 65% radiolabeled Dexamethasone; format: functional, cell-based
Estrogen receptor = biological target: T2, Estrogen receptor (Homo sapiens, UniProt P03372); test: Binding affinity for human estrogen receptor alpha
T2 sequence (P03372 whole entry): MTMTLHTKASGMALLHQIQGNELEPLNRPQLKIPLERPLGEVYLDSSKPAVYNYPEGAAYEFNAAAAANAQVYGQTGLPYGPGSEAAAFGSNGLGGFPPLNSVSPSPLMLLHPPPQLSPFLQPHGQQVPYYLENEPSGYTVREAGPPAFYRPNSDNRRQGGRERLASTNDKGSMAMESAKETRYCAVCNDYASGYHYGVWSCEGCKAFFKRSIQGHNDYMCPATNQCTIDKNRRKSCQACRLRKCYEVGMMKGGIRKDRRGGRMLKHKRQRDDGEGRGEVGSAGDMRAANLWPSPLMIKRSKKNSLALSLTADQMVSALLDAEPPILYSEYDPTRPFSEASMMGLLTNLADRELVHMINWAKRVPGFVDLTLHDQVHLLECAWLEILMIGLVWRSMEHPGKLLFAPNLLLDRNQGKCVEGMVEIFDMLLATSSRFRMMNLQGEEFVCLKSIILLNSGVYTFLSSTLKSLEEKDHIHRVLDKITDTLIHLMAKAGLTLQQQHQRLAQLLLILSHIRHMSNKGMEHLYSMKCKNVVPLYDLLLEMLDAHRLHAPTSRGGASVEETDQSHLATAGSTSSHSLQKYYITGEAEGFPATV

Glucocorticoid receptor [11] = biological target: T1, Glucocorticoid receptor; test: Binding affinity for human glucocorticoid receptor
Estrogen receptor beta = Estrogen receptor beta (Homo sapiens, UniProt Q92731); test: Binding affinity for human estrogen receptor beta
[12] = biological target: T3, Mineralocorticoid receptor (Rattus norvegicus, UniProt P22199); test: Binding affinity for rat mineralocorticoid receptor
T3 sequence (P22199 whole entry): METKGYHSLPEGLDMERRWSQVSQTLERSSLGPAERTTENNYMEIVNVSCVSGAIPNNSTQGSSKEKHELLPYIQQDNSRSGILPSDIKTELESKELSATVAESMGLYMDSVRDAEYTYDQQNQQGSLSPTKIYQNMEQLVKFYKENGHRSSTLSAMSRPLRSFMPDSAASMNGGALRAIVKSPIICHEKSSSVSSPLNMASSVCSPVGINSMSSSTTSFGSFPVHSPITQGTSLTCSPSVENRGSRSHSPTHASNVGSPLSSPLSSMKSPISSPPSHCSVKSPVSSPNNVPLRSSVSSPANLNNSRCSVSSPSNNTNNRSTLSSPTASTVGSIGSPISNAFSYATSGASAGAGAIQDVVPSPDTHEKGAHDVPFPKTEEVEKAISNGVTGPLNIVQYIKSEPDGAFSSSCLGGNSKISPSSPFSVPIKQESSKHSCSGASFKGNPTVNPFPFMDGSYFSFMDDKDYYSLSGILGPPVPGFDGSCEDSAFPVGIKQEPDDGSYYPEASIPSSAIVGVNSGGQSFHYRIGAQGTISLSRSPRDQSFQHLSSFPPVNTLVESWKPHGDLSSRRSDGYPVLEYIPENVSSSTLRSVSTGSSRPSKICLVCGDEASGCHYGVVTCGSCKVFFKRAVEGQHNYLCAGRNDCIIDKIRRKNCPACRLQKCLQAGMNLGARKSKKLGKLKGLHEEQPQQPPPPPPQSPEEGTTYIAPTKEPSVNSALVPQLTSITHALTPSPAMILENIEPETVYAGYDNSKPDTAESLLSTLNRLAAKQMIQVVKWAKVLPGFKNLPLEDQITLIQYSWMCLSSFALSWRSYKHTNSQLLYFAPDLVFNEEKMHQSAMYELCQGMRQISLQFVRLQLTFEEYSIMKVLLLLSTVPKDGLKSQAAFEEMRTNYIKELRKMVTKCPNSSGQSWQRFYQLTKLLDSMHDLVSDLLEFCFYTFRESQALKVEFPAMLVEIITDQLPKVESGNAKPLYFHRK

Progesterone receptor = biological target: T4, Progesterone receptor (Homo sapiens, UniProt P06401); test: Binding affinity for human progesterone receptor
T4 sequence (P06401 whole entry): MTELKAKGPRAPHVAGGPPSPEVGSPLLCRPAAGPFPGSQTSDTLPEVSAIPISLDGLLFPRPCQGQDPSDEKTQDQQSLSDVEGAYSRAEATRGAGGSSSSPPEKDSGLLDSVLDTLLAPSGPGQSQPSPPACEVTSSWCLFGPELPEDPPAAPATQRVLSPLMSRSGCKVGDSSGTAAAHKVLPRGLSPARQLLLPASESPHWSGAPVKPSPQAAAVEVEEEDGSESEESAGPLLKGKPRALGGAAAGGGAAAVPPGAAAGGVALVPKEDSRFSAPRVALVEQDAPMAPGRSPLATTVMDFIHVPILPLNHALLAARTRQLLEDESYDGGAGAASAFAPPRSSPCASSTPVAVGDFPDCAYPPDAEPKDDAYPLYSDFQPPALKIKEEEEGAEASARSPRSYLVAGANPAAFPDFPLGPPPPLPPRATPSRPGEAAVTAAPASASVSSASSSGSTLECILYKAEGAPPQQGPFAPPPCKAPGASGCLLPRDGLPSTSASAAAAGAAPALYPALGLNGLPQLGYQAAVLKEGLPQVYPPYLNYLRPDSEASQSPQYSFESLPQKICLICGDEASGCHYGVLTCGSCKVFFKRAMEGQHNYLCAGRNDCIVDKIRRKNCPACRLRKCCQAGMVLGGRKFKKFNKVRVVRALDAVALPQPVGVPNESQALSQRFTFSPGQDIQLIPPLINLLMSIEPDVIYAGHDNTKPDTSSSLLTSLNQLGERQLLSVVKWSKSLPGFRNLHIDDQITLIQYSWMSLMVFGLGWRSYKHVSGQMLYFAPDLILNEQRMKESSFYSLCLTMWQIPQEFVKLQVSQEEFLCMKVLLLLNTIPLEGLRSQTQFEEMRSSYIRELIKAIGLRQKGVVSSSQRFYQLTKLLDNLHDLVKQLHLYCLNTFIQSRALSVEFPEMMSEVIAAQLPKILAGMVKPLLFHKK

Mus musculus [13] = species: Mus musculus; test: Effective concentration required for inhibition of interleukin-6 in mouse thioglycolate-elicited peritoneal exudate cell line using 95% radiolabeled Dexamethasone; format: functional
A549 [14] = test: Effective concentration required for inhibition of interleukin-6 in human A549 lung carcinoma cell line using 102% radiolabeled Dexamethasone; format: functional, cell-based
HepG2 = test: Effective concentration required for induction of tyrosine aminotransferase in human HepG2 cells using 81% radiolabeled Dexamethasone; format: functional, cell-based
[15] = Effective concentration required for induction of glutamine synthetase in human skeletal muscle cells using 97% radiolabeled Dexamethasone; format: functional
A549 [16] = test: Effective concentration for inhibition of interleukin-6 in human A549 lung carcinoma cell line using 69% radiolabeled Dexamethasone; format: functional, cell-based

Sequence of Estrogen receptor beta (Q92731 whole entry): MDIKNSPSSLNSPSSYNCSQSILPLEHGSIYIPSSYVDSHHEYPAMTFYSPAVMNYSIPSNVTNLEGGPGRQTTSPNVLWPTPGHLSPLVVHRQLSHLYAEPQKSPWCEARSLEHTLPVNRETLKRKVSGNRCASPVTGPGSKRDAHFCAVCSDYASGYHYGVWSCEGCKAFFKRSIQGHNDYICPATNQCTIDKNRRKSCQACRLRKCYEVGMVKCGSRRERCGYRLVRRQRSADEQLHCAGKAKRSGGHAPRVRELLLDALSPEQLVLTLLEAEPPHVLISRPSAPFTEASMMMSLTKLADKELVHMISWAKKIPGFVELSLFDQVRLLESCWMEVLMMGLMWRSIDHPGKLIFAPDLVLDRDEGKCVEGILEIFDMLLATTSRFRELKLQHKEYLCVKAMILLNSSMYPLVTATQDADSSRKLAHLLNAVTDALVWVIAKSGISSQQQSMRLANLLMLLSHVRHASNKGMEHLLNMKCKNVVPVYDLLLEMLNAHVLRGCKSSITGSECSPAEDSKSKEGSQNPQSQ

## CC[C@H]1OC2(CCCC3=Cc4c(cnn4-c4ccc(F)cc4)C[C@@]32C)O[C@@H]1CC
Mus musculus [1]
  EC50: 78 nM
Glucocorticoid receptor [2]
  IC50: 5.5 nM
A549 [3]
  EC50: 19 nM

## C=C[C@H]1CO[C@@]2(CCC3=Cc4c(cnn4-c4ccc(F)cc4)C[C@@]32C)O1
Glucocorticoid receptor [2]
  IC50: 49 nM

## CC1(C)COC2(CCC3=Cc4c(cnn4-c4ccc(F)cc4)C[C@@]32C)OC1
A549 [4]
  EC50: 12 nM
Glucocorticoid receptor [2]
  IC50: 28 nM

## C[C@]12Cc3cnn(-c4ccc(F)cc4)c3C=C1CC[C@]21OC[C@H](c2ccccc2)O1
Glucocorticoid receptor [2]
  IC50: 12 nM

## CC[C@H]1OC2(CCC3=Cc4c(cnn4-c4ccc(F)cc4)C[C@@]32C)O[C@@H]1CC
Mus musculus [5]
  EC50: 36 nM
A549 [6]
  EC50: 24 nM
Glucocorticoid receptor [2]
  IC50: 6.6 nM
Mus musculus [7]
  EC50: 36 nM
Mus musculus [8]
  Inhibition: 97.8%

## C[C@H]1OC2(CCCC3=Cc4c(cnn4-c4ccc(F)cc4)C[C@@]32C)O[C@@H]1C
Glucocorticoid receptor [2]
  IC50: 10 nM

## C=C[C@H]1OC2(CCCC3=Cc4c(cnn4-c4ccc(F)cc4)C[C@@]32C)O[C@@H]1C=C
Mus musculus [9]
  EC50: 8.7 nM
A549 [10]
  EC50: 5.3 nM
Estrogen receptor
  IC50: > 10000 nM
Glucocorticoid receptor [11]
  IC50: 1.2 nM
Estrogen receptor beta
  IC50: > 10000 nM
Glucocorticoid receptor [2]
  IC50: 1.2 nM
[12]
  IC50: 7400 nM
Progesterone receptor
  IC50: > 1000 nM

## C[C@]12Cc3cnn(-c4ccc(F)cc4)c3C=C1CCC21OCCO1 (stereo in doubt; 2)
Mus musculus [13]
  EC50: 5.7 nM
A549 [14]
  EC50: 4.5 nM
Glucocorticoid receptor [2]
  IC50: 13.8 nM
HepG2
  EC50: 211 nM
[15]
  EC50: 32 nM

## C[C@]12Cc3cnn(-c4ccc(F)cc4)c3C=C1CCC21OCCO1 (stereo in doubt; 13)
A549 [16]
  EC50: 28 nM
Estrogen receptor
  IC50: > 10000 nM
Glucocorticoid receptor [11]
  IC50: 73 nM
Estrogen receptor beta
  IC50: > 10000 nM
Glucocorticoid receptor [2]
  IC50: 73 nM
[12]
  IC50: > 10000 nM
Progesterone receptor
  IC50: > 1000 nM

## C[C@@H]1C[C@@H](C)OC2(CCC3=Cc4c(cnn4-c4ccc(F)cc4)C[C@@]32C)O1 (stereo in doubt; form 2)
Glucocorticoid receptor [2]
  IC50: 8.4 nM
